The source of these data is US8071287B2, “Pharmaceutical and therapeutic applications relating to a type 9 adenylyl cyclase Polymorphism in asthma and reversible bronchial obstruction” (priority 2005, dated 2011).

Positions count from the first letter of the chain named.

For one series, the target named is T1, Met772 AC9 (Homo sapiens, UniProt O60503, I772M).
T1 construct: expressed in transfected cells
T1 sequence (O60503 1-1353 I772M): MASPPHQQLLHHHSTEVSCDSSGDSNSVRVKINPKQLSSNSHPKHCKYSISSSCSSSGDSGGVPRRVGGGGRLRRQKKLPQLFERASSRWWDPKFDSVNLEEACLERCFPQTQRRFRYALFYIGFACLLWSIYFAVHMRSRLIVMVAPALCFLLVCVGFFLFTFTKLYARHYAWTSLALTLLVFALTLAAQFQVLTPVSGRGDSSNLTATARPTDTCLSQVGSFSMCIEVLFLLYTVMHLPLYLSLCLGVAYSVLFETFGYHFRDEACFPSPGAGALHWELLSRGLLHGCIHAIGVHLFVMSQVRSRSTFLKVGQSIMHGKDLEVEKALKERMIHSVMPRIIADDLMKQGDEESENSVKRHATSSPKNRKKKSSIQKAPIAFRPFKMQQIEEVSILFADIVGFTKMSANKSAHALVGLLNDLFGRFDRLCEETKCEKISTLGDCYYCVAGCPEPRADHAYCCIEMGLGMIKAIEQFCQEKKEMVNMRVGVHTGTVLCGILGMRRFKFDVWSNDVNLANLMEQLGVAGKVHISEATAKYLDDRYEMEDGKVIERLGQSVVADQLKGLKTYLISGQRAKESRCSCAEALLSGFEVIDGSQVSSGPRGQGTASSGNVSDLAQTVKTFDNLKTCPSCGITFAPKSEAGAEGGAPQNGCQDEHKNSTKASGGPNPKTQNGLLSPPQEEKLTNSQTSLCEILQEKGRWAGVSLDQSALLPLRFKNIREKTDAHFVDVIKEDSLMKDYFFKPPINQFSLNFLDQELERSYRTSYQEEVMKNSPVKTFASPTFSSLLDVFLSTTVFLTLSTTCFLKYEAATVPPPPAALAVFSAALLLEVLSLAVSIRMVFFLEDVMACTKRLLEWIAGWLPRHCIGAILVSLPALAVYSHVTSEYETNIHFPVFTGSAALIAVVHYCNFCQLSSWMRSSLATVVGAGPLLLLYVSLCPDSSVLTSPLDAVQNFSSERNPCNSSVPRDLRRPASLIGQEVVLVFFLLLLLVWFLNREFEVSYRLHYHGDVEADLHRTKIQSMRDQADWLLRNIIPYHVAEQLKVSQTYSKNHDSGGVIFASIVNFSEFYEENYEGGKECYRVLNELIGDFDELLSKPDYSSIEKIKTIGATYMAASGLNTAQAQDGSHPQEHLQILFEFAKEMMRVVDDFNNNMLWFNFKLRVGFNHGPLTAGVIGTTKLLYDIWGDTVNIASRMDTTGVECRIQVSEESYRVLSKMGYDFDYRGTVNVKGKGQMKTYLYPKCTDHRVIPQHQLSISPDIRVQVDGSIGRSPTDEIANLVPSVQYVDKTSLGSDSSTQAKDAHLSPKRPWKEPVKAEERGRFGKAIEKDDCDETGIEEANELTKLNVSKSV
Nature of the series: Adenylyl cyclase activities in membranes of A431 cells transfected with Met772 AC9. As to conditions: 10 μM albuterol; for stimulated adenylyl cyclase activities of Met772 compared to WT: no corticosteroid, 1.8 mM MnCl2 or 10 mM NaF; for albuterol stimulated adenylyl cyclase activities: Met772 cells, N=5. Type of series: biochemical. The text has this:
(§1) The WT coding sequence for the human AC9 gene is considered that of GenBank accession number DQ005545. With the adenine of the initiator codon being considered nucleotide 1, a polymorphism consisting of an […] which results in […] (accession number DQ008441) was previously described in Small et al, Pharmacogenetics, 13, 535-541, supra. The cDNAs for […] (also referred to as WT) and […] coding regions were generated from human lymphocyte RNA, subcloned into pCNDA3, and transfections of A431 cells carried out as described. Selection of positive clones was carried out in media containing 400 μg/ml G418. Expression of AC9 was determined in individual clonal lines by Western blots (see below). A431 cells were grown in monolayers in Dulbecco's modified Eagle's medium with 4 mM […] 10% fetal bovine serum, 100 U/ml penicillin and 100 μg/ml streptomycin, at 37° in a 5% CO2 atmosphere. In some studies, cells at 90% confluency in the absence of serum were treated with 500 nM dexamethasone for 12 hours and then utilized as described below. […] M et al., “Beta1-adrenergic receptor polymorphisms confer differential function and predisposition to heart failure” Nat. Med., 9, 1300-1305 (2003). […] [^32P] cAMP was separated from […] by chromatography over alumina columns. The [^3H] cAMP standard included in the stop buffer accounted for individual column recovery.

For a further series, the target named is T2, WT (Ile772) AC9 (Homo sapiens, UniProt O60503).
T2 construct: expressed in transfected cells
T2 sequence (O60503 1-1353): T1 sequence (O60503 1-1353 I772M) with M772I
In words: Adenylyl cyclase activities in membranes of A431 cells transfected with WT (Ile772) AC9. As to conditions: for albuterol stimulated adenylyl cyclase activities: WT cells, 10 μM albuterol, N=5. Type of series: biochemical.
Text: as §1

The next series deals with asthmatic children. Nature of the series: CAMP clinical cohort: bronchodilator response (FEV1) stratified by AC9 genotype. Type of series: in vivo, human. As to conditions: for Bronchodilator response at baseline: at randomization. The text has this:
The study cohort consisted of pediatric patients who participated in the Childhood Asthma Management Program (CAMP). The study was a multicenter, randomized, trial comparing regularly scheduled inhalation treatment with the corticosteroid budesonide, the putative mast-cell “stabilizer” nedocromil, and placebo. The study design has been previously published in “Long-term effects of budesonide or nedocromil in children with asthma” N. Engl. J. Med., 343, 1054-1063 (2000). […] Once per year a methacholine challenge was performed to ascertain bronchial hyperresponsiveness. The current study utilized archived DNA from patients who participated in the CAMP DNA Ancillary Study. Because of potential population stratification issues (the allele frequency of Met772 is ˜0.30 in Caucasians and ˜0.15 in African Americans) and the small number of African American children enrolled in CAMP (14%), the current study was confined to Caucasian children. […] The analysis was focused then, on 436 children, with follow-up through 48 months, the last time point in which nearly complete measures were obtained for the cohort. The subjects' parents provided informed consent, and the study was approved by the Institutional Review Boards of each participating center.
The AC9 SNP at nucleotide 2316 was genotyped via a SEQUENOM MassARRAY MALDI-TOF mass spectrometer (Sequenom, San Diego, Calif.) for analysis of unlabeled single-base extension minisequencing reactions with a semiautomated primer design program (Spectro[…], Sequenom). […] To assess for possible population stratification, a random panel of 49 SNPs across the genome (“stratification SNPs”), obtained through the SNP Consortium (TSC) database was also genotyped. SNPs were chosen that are widely distributed throughout the genome and exclude promoters, genomic UTRs, exons, and introns of known genes.
Bronchodilator response is defined as FEV1 after bronchodilator minus FEV1 before bronchodilator divided by FEV1 before bronchodilator times 100 [(Post-FEV1−Pre-FEV1)/(Pre-FEV1)×100]. Longitudinal models of bronchodilator response, using repeated measures modeling with time as a linear effect and an unstructured covariance matrix, are used. These models evaluate change in bronchodilator response beginning at the 2 month follow-up visit, allowing for evaluation of change based on treatment type. Univariate and multivariable analyses adjusting for age, sex, and bronchodilator response at baseline are performed, under the assumption of a dominant model. To test for interaction between steroid treatment and Ile772Met genotypic status, treatment specific strata was evaluated and included interaction terms in the models. A “mean bronchodilator” response is also derived by taking all of the observations over the 4 years and dividing by the number of visits. This value was used as the primary outcome in the haplotypic assessment of interactions between the β2AR locus and the AC9 polymorphism.

The test system of another series is β2AR. In words: 125I-CYP radioligand binding for endogenous β2AR density in transfected A431 cells. It counts as cell-based.
The mark [1] stands for this setting: after dexamethasone treatment (500 nM).

Description for β2AR: The cDNAs for Ile772 (also referred to as WT) and Met772 coding regions were generated from human lymphocyte RNA, subcloned into pCNDA3, and transfections of A431 cells carried out as described. Selection of positive clones was carried out in media containing 400 μg/ml G418. Expression of AC9 was determined in individual clonal lines by Western blots (see below). A431 cells were grown in monolayers in Dulbecco's modified Eagle's medium with 4 mM L-glutamate 10% fetal bovine serum, 100 U/ml penicillin and 100 μg/ml streptomycin, at 37° in a 5% CO2 atmosphere. In some studies, cells at 90% confluency in the absence of serum were treated with 500 nM dexamethasone for 12 hours and then utilized as described below.
Transfected A431 cells were washed three times with phosphate-buffered saline (PBS), detached by scraping in 5 mM Tris, pH 7.4, 2 mM ethylenediaminetetracetic acid (EDTA) buffer, and centrifuged at 30,000 g for 10 min. […] Nonspecific binding was determined with 1 μM propranolol. […] AC9 expression in these transfected cell lines was assessed by quantitative immunoblotting so as to select lines expressing Ile772 or Met772 at the same levels for pharmacologic studies, and to ascertain if corticosteroid treatment altered expression. […] Relative levels of AC9 expression were subsequently determined using ScanAnalysis software (BioSoft, Cambridge, UK).

For `[Cl][Mn][Cl]` [MnCl2], the “stimulated adenylyl cyclase activities of Met772 compared to WT” value on Met772 AC9 is reported as “decreased compared to WT”.
Regarding `[F-].[Na+]` [NaF], on Met772 AC9, the “stimulated adenylyl cyclase activities of Met772 compared to WT” value was “decreased compared to WT”.
Consider `CC(C)(C)NCC(O)c1ccc(O)c(CO)c1` (stereo not drawn) [albuterol], for which the “albuterol stimulated adenylyl cyclase activities” value at WT (Ile772) AC9 (setting [1]) stood at 33 ± 2.5 pmol/min/mg; on WT (Ile772) AC9 (before dexamethasone treatment), 27 ± 2.1 pmol/min/mg; at Met772 AC9 (setting [1]), 43 ± 3.4 pmol/min/mg; at Met772 AC9 (before dexamethasone treatment), 24 ± 1.3 pmol/min/mg. In addition, the “increase of albuterol-stimulated adenylyl cyclase response” value on WT (Ile772) AC9 (cells expressing Ile772 cultured in the presence of glucocorticoid) is given as roughly 20%. The “Bronchodilator response at baseline” value in the series on asthmatic children (Met772 carriers) was 11.17 ± 11.24; with asthmatic children (WT patients), 10.32 ± 9.18. Further, the “average bronchodilator response (±SE), univariate” value was found to be 9.23 ± 0.34% in the series on asthmatic children (Overall Cohort, Met772, 4 year follow-up); 9.41 ± 0.48% in the series on asthmatic children (Overall Cohort, Wildtype, 4 year follow-up); 9.94 ± 0.61% with asthmatic children (Placebo Group (no inhaled steroid), Met772); 10.92 ± 0.79% in the series with asthmatic children (Placebo Group (no inhaled steroid), Wildtype); 8.72±0.54% in the series with asthmatic children (Steroid Group (inhaled budesonide), Met772); 6.76±0.69% in the series on asthmatic children (Steroid Group (inhaled budesonide), Wildtype). Further, the “average bronchodilator response (±SE), multivariate” value in the series on asthmatic children (Overall Cohort, Met772, adjusted for age, gender, inhaled steroid usage, baseline response, time) is 6.17 ± 0.92%; with asthmatic children (Steroid Group (inhaled budesonide), Met772, adjusted), 5.78 ± 1.49%. The “stimulated adenylyl cyclase activities of Met772 compared to WT” value on Met772 AC9 is listed as “not different between the lines”.
As to `CCCC1O[C@@H]2C[C@H]3[C@@H]4CCC5=CC(=O)C=C[C@]5(C)[C@H]4[C@@H](O)C[C@]3(C)[C@]2(C(=O)CO)O1` (stereo partly drawn) [budesonide], the “increase in bronchodilation response of Met772 carriers compared to wild type” value in the series with asthmatic children (on inhaled budesonide, univariate) is roughly 2 percentage point.
In the case of `C[C@@H]1C[C@H]2[C@@H]3CCC4=CC(=O)C=C[C@]4(C)[C@@]3(F)[C@@H](O)C[C@]2(C)[C@@]1(O)C(=O)CO` [dexamethasone], the β2AR expression with β2AR (Met772 AC9 line after corticosteroid (dexamethasone) exposure, untreated 66±8.9) amounted to 109 ± 9.0 fmol/mg; in the series on β2AR (WT AC9 line after corticosteroid (dexamethasone) exposure, untreated 51±6.2), 103 ± 7.8 fmol/mg.
